The test system of this assay is BDF1 mice, Adenocarcinoma 755 s.c., tumor weight T/C. The assay is described as follows: NCI In Vivo Anticancer Drug Screen. Data for tumor model Adenocarcinoma 755 (subcutaneous) in B6D2F1 (BDF1) mice. The settings on record: endpoint: mean tumor weight, schedule: Q01DX011 (ip), higher = larger tumour. The method in brief: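 Transplantable tumor implanted; mice dosed with compound or vehicle; survival or tumor size recorded; ratio of treated to vehicle control reported.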

Where [1] appears, read: dose: 15.0 mg/kg/injection, vehicle: carboxymethylcellulose (CMC).
The mark [2] stands for this setting: dose: 50.0 mg/kg/injection, vehicle: methylcellulose (MC).
Setting [3] is: dose: 100.0 mg/kg/injection, vehicle: methylcellulose (MC).
The mark [4] stands for this setting: dose: 200.0 mg/kg/injection, vehicle: methylcellulose (MC).
Where [5] appears, read: dose: 150.0 mg/kg/injection, vehicle: carboxymethylcellulose (CMC).
[6] abbreviates: dose: 15.0 mg/kg/injection, vehicle: methylcellulose (MC).
The mark [7] stands for this setting: dose: 31.0 mg/kg/injection, vehicle: methylcellulose (MC).
Where [8] appears, read: dose: 62.0 mg/kg/injection, vehicle: methylcellulose (MC).
The mark [9] stands for this setting: dose: 25.0 mg/kg/injection, vehicle: methylcellulose (MC).
Where [10] appears, read: dose: 75.0 mg/kg/injection, vehicle: methylcellulose (MC).
Setting [11] is: dose: 225.0 mg/kg/injection, vehicle: methylcellulose (MC).

Several values for one entry are separate records, joined by “and”; a condition that tells them apart may be missing. Equal values may be shown once.

As a reminder, the T/C is the ratio of treated to control. As to `[I][Hg][CH2]C1OCCOC1[CH2][Hg][I]` (configuration not stated), the T/C (dose: 2.5 mg/kg/injection, vehicle: carboxymethylcellulose (CMC)) was 73 % of control; the T/C (dose: 5.0 mg/kg/injection, vehicle: carboxymethylcellulose (CMC)) is 39 % of control; the T/C (dose: 10.0 mg/kg/injection, vehicle: carboxymethylcellulose (CMC)) is 40 % of control; the T/C (dose: 11.0 mg/kg/injection, vehicle: other) was 73 % of control; the T/C (dose: 16.0 mg/kg/injection, vehicle: carboxymethylcellulose (CMC)) was 41 % of control; the T/C (dose: 20.0 mg/kg/injection, vehicle: carboxymethylcellulose (CMC)) was 30 % of control. Besides, the T/C reads like this: (dose: 22.0 mg/kg/injection, vehicle: other) 61 % of control; (dose: 32.0 mg/kg/injection, vehicle: carboxymethylcellulose (CMC)) 6 % of control; (dose: 44.0 mg/kg/injection, vehicle: other) 53 % of control; (dose: 66.0 mg/kg/injection, vehicle: other) 37 % of control.
Turning to `CCCCCCCCCCCCNCCCCCCCCCCCC`, under “dose: 2.5 mg/kg/injection, vehicle: other”, the T/C is 41 % of control.
Consider `O=C1C=CC(=O)O1` (tested in a mixture with another compound), for which the T/C (dose: 11.0 mg/kg/injection, vehicle: carboxymethylcellulose (CMC)) was 39 % of control and 57 % of control; the T/C (dose: 11.0 mg/kg/injection, vehicle: saline) was 56 % of control; the T/C (dose: 22.0 mg/kg/injection, vehicle: carboxymethylcellulose (CMC)) is 18 % of control and 38 % of control; the T/C (dose: 22.0 mg/kg/injection, vehicle: saline) was 31 % of control; the T/C (dose: 90.0 mg/kg/injection, vehicle: carboxymethylcellulose (CMC)) is 11 % of control and 32 % of control.
Regarding `CC(=O)OCC1OC(n2cnc3c(=S)nc[nH]c32)C(OC(C)=O)C1OC(C)=O` (configuration not stated), the T/C was 84 % of control (dose: 0.2 mg/kg/injection, vehicle: carboxymethylcellulose (CMC)); 93 % of control (dose: 0.4 mg/kg/injection, vehicle: carboxymethylcellulose (CMC)); 61 % of control (dose: 0.9 mg/kg/injection, vehicle: carboxymethylcellulose (CMC)); 14 % of control and 31 % of control (dose: 1.8 mg/kg/injection, vehicle: carboxymethylcellulose (CMC)); 6 % of control (dose: 3.7 mg/kg/injection, vehicle: carboxymethylcellulose (CMC)); 3 % of control (dose: 7.5 mg/kg/injection, vehicle: carboxymethylcellulose (CMC)). In addition, the T/C under setting [1] is 2 % of control.
With `CC(Nc1ncnc2nc[nH]c12)C(=O)O` (configuration not stated), the T/C (dose: 25.0 mg/kg/injection, vehicle: saline) is 114 % of control; the T/C (dose: 75.0 mg/kg/injection, vehicle: saline) was 86 % of control; the T/C (dose: 225.0 mg/kg/injection, vehicle: saline) is 20 % of control.
On to `CCCCNc1nc(N)nc(Nc2ccc(Br)cc2)c1N=O`, for which the T/C is 18 % of control (dose: 50.0 mg/kg/injection, vehicle: carboxymethylcellulose (CMC)); 46 % of control under setting [2]; 30 % of control (dose: 100.0 mg/kg/injection, vehicle: carboxymethylcellulose (CMC)); 44 % of control under setting [3]; 53 % of control (dose: 200.0 mg/kg/injection, vehicle: carboxymethylcellulose (CMC)); 40 % of control under setting [4]. Further, the T/C runs as follows: (dose: 400.0 mg/kg/injection, vehicle: methylcellulose (MC)) 47 % of control; (dose: 800.0 mg/kg/injection, vehicle: carboxymethylcellulose (CMC)) 23 % of control.
As for `CN1Cc2c(ccc3c2OCO3)[C@@H]2[C@H](O)Cc3cc4c(cc3[C@@H]21)OCO4`, the T/C runs as follows: under setting [5], 167 % of control; (dose: 300.0 mg/kg/injection, vehicle: carboxymethylcellulose (CMC)) 51 % of control.
As to `CCN(CC)c1nc(SCc2ccc(Cl)cc2Cl)ncc1C`, the T/C is, setting by setting: under setting [6], 56 % of control; under setting [7], 89 % of control; under setting [8], 71 % of control; (dose: 125.0 mg/kg/injection, vehicle: methylcellulose (MC)) 61 % of control; (dose: 250.0 mg/kg/injection, vehicle: methylcellulose (MC)) 54 % of control.
`CC1CCN(C(=O)CCCl)c2ccccc21` (configuration not stated): the T/C is 101 % of control under setting [9], 71 % of control under setting [10] and 82 % of control under setting [11].
Consider `OCCn1cnc2c(SCc3ccccc3Cl)ncnc21`, for which the T/C under setting [1] was 77 % of control; the T/C under setting [9] was 97 % of control; the T/C (dose: 30.0 mg/kg/injection, vehicle: carboxymethylcellulose (CMC)) is 49 % of control; the T/C (dose: 60.0 mg/kg/injection, vehicle: carboxymethylcellulose (CMC)) is 22 % of control; the T/C (dose: 150.0 mg/kg/injection, vehicle: methylcellulose (MC)) is 5 % of control.
Turning to `CCCC(=O)OCC1OC(n2cnc3c(=S)nc[nH]c32)C(OC(=O)CCC)C1OC(=O)CCC` (configuration not stated), the T/C is, setting by setting: (dose: 3.0 mg/kg/injection, vehicle: other) 48 % of control; (dose: 3.12 mg/kg/injection, vehicle: other) 75 % of control; (dose: 6.0 mg/kg/injection, vehicle: other) 16 % of control; (dose: 6.25 mg/kg/injection, vehicle: other) 13 % of control; (dose: 12.0 mg/kg/injection, vehicle: other) 6 % of control; (dose: 12.5 mg/kg/injection, vehicle: other) 4 % of control.
Regarding `CC(C)Cn1cnc2c(SCCCc3ccccc3)nc(N)nc21`, the T/C under setting [9] is 72 % of control, the T/C under setting [2] was 39 % of control, the T/C under setting [3] is 10 % of control and the T/C under setting [4] was 8 % of control.
Turning to `COC1C(OC(=O)/C=C/C=C/C=C/C=C\C(=O)O)CCC2(CO2)C1C1(C)OC1CC=C(C)C` (configuration not stated), the T/C runs as follows: (dose: 10.0 mg/kg/injection, vehicle: other) 90 % of control; (dose: 20.0 mg/kg/injection, vehicle: other) 98 % of control; (dose: 40.0 mg/kg/injection, vehicle: other) 64 % of control; (dose: 80.0 mg/kg/injection, vehicle: other) 82 % of control; (dose: 160.0 mg/kg/injection, vehicle: other) 74 % of control.
`CCOc1nc(N)nc2n[nH]nc12`: the T/C is 67 % of control (dose: 75.0 mg/kg/injection, vehicle: carboxymethylcellulose (CMC)) and 9 % of control under setting [5].
For `N#Cc1cn(Cc2ccco2)c(=O)[nH]c1=O`, the T/C was 54 % of control under setting [6], 84 % of control under setting [7] and 80 % of control under setting [8].
For `Cc1ccc2c(c1)CCCN2C(=O)CCCl`, the T/C by setting is: under setting [9], 101 % of control; under setting [10], 40 % of control; under setting [11], 60 % of control.

The record behind these values is PubChem BioAssay AID180 (DTP/NCI, 2004).
